Converted amounts (≈) assume the structure as drawn. Like-named read-outs stand apart in the source and are kept apart here. Marks after values point to notes of the source that are not given here.
Tests used:
V22 6056 Acinetobacter = test: MIC assay, CAMHB with alginate oligomer, no visible growth; assay type: cell-based, Acinetobacter lwoffii; details: Table 5, V22 MDR Acin. lwoff
[1] = tested on: strains of Klebsiella pneumoniae displaying MDR phenotypes; test: MIC-assay, Mueller-Hinton broth with G-block alginate, 384-well, OD600 (Table 10); assay type: cell-based
Description: Minimum inhibitory concentration (MICs) of different antibiotics for strains of Klebsiella pneumoniae displaying MDR phenotypes in the presence of varying concentrations of OligoCF-5/20 (0-10%). (MIC values are expressed in μg ml^−1).

[2] = tested on: Pseudomonas aeruginosa MDR R22 from China (V1); test: MIC assay, CAMHB with alginate oligomer, no visible growth; assay type: cell-based; details: for MIC: Pseudomonas aeruginosa, Table 1, V1 MDR R22 PA, read-out: MIC
Description: The study described in Example 1 was repeated with the following strains of bacteria and antibiotics as detailed in Tables 4, 5 and 6.

[3] = tested on: Burkholderia cepacia (1322, V23); test: MIC-assay, Mueller-Hinton broth with G-block alginate, 384-well, OD600
[4] = tested on: Pseudomonas aeruginosa (R22, PSA, V1); test: as above
[5] = tested on: Burkholderia cepacia (LMG18941, ATCC-BAA-246); test: as above
MDR Providencia stuartii = test: MIC-assay, Mueller-Hinton broth with G-block alginate, 384-well, OD600 (Table 11); assay type: cell-based; details: Providencia stuartii (IR57 India, V7) MDR
Description: (§1) Minimum inhibitory concentration (MICs) of different antibiotics for strains of E. coli and Providencia stuartii displaying MDR phenotypes in the presence of varying concentrations of OligoCF-5/20 (0-10%). (MIC values are expressed in μg ml^−1).

[6] = tested on: strains of E. coli displaying MDR phenotypes; test: as above; assay type: cell-based; details: Escherichia coli, Escherichia coli (5702, Wales, V11) MDR, read-out: MIC
Description: as §1

[7] = tested on: Pseudomonas aeruginosa MDR 301 from Poland (V2); test: MIC assay, CAMHB with alginate oligomer, no visible growth; assay type: cell-based; details: Pseudomonas aeruginosa, Table 1, V2 MDR 301 PA, read-out: MIC
[8] = tested on: Acinetobacter baumannii (MDR ACB, Libya, V4); test: MIC-assay, Mueller-Hinton broth with G-block alginate, 384-well, OD600
[9] = tested on: Staphylococcus aureus (MRSA) U50; test: MIC-assay, Mueller-Hinton broth with G-block alginate, 384-well, OD600 (Table 12); assay type: cell-based; details: MRSA 1040s, U50 MDR, read-out: MIC
Description: (§2) Minimum inhibitory concentration (MICs) of different antibiotics for strains of Streptococcus oralis and Staphylococcus aureus (MRSA) displaying MDR phenotypes in the presence of varying concentrations of OligoCF-5/20 (0-10%). (MIC values are expressed in μg ml^−1).

Streptococcus oralis = test: as above; assay type: cell-based; details: Streptococcus oralis (5610, V17) MDR, read-out: MIC
Description: as §2

[10] = tested on: V9 (Egypt) Acinetobacter baumannii; test: MIC assay, CAMHB with alginate oligomer, no visible growth; assay type: cell-based; details: Table 5, V9 MDR Acin. baum
[11] = tested on: V12 5725 (Wales) Klebsiella pneumoniae; test: as above; assay type: cell-based; details: Table 5, V12 MDR Kleb pneu
[12] = tested on: Pseudomonas aeruginosa ATCC 39324, mucoid type strain (R79); test: as above; assay type: cell-based; details: Pseudomonas aeruginosa, ATCC39324, Table 1, R79, read-out: MIC
[13] = tested on: Pseudomonas aeruginosa CFA 24-1, clinical mucoid strain (R80); test: as above; assay type: cell-based; details: Pseudomonas aeruginosa, Table 1, R80, read-out: MIC
[14] = Table 8, G-block (OligoCF-5/20) 0%
[15] = Table 8, G-block (OligoCF-5/20) 2%
[16] = Table 8, G-block (OligoCF-5/20) 6%
[17] = Table 8, G-block (OligoCF-5/20) 10%

SMILES: CC(C)(O/N=C(\C(=O)N[C@@H]1C(=O)N2C(C(=O)[O-])=C(C[n+]3ccccc3)CS[C@H]12)c1csc(N)n1)C(=O)O [Ceftazidime]
- MIC (V22 6056 Acinetobacter; Acinetobacter, OligoCF-5/20 0G, read-out: MIC): 16 µg/mL (≈ 29.3 µM)
- MIC (V22 6056 Acinetobacter; OligoCF-5/20 +2% G): 16 µg/mL (≈ 29.3 µM)
- MIC (V22 6056 Acinetobacter; OligoCF-5/20 +6% G): 4^† μg/ml
- MIC (V22 6056 Acinetobacter; OligoCF-5/20 +10% G): 2^† μg/ml
- MIC ([1]; Klebsiella pneumoniae (5712, Wales, V12) MDR, G-block (OligoCF-5/20) 0%, read-out: MIC): > 16 µg/mL
- MIC ([1]; Klebsiella pneumoniae (5712, Wales, V12) MDR, G-block (OligoCF-5/20) 2%, read-out: MIC): 8 µg/mL (≈ 14.6 µM)
- MIC ([1]; Klebsiella pneumoniae (5712, Wales, V12) MDR, G-block (OligoCF-5/20) 6%, read-out: MIC): > 16 µg/mL
- MIC ([1]; Klebsiella pneumoniae (5712, Wales, V12) MDR, G-block (OligoCF-5/20) 10%, read-out: MIC): > 16 µg/mL
- MIC ([1]; Klebsiella pneumoniae (IR25, India, V6) MDR, G-block (OligoCF-5/20) 0%, read-out: MIC): > 1020 µg/mL
- MIC ([1]; Klebsiella pneumoniae (IR25, India, V6) MDR, G-block (OligoCF-5/20) 2%): 1020 µg/mL (≈ 1870 µM)
- MIC ([1]; Klebsiella pneumoniae (IR25, India, V6) MDR, G-block (OligoCF-5/20) 6%, read-out: MIC): > 1020 µg/mL
- MIC ([1]; Klebsiella pneumoniae (IR25, India, V6) MDR, G-block (OligoCF-5/20) 10%): 1020 µg/mL (≈ 1870 µM)
- MIC ([1]; Klebsiella pneumoniae (K3, India, V8) MDR, G-block (OligoCF-5/20) 0%, read-out: MIC): > 1020 µg/mL
- MIC ([1]; Klebsiella pneumoniae (K3, India, V8) MDR, G-block (OligoCF-5/20) 2%, read-out: MIC): > 1020 µg/mL
- MIC ([1]; Klebsiella pneumoniae (K3, India, V8) MDR, G-block (OligoCF-5/20) 6%, read-out: MIC): > 1020 µg/mL
- MIC ([1]; Klebsiella pneumoniae (K3, India, V8) MDR, G-block (OligoCF-5/20) 10%, read-out: MIC): > 1020 µg/mL
- MIC ([2]; OligoCF-5/20 0G): 128 µg/mL (≈ 234 µM)
- MIC ([2]; OligoCF-5/20 +2% G): 64 µg/mL (≈ 117 µM)
- MIC ([2]; OligoCF-5/20 +6% G): 32 µg/mL (≈ 58.5 µM)
- MIC ([2]; OligoCF-5/20 +10% G): 8 µg/mL (≈ 14.6 µM)
- change of MIC in combination with azithromycin by alginate oligomer ([2]; Table 3, MDR R22 PA strain): reduced
- MIC [3, 14]: > 16 µg/mL
- MIC [3, 15]: > 16 µg/mL
- MIC [3, 16]: 16 µg/mL (≈ 29.3 µM)
- MIC [3, 17]: 16 µg/mL (≈ 29.3 µM)
- MIC [4, 14]: > 16 µg/mL
- MIC [4, 15]: > 16 µg/mL
- MIC [4, 16]: > 16 µg/mL
- MIC [4, 17]: > 16 µg/mL
- MIC ([5]; ATCCBAA246|LMG18941, Table 8, G-block (OligoCF-5/20) 0%): > 16 µg/mL
- MIC ([5]; ATCCBAA246|LMG18941, Table 8, G-block (OligoCF-5/20) 2%): 16 µg/mL (≈ 29.3 µM)
- MIC ([5]; ATCCBAA246|LMG18941, Table 8, G-block (OligoCF-5/20) 6%): 16 µg/mL (≈ 29.3 µM)
- MIC ([5]; ATCCBAA246|LMG18941, Table 8, G-block (OligoCF-5/20) 10%): 16 µg/mL (≈ 29.3 µM)
- MIC (MDR Providencia stuartii; G-block (OligoCF-5/20) 0%): > 1020 µg/mL
- MIC (MDR Providencia stuartii; G-block (OligoCF-5/20) 2%): > 1020 µg/mL
- MIC (MDR Providencia stuartii; G-block (OligoCF-5/20) 6%): > 1020 µg/mL
- MIC (MDR Providencia stuartii; G-block (OligoCF-5/20) 10%): > 1020 µg/mL
- MIC ([6]; G-block (OligoCF-5/20) 0%): > 16 µg/mL
- MIC ([6]; G-block (OligoCF-5/20) 2%): > 16 µg/mL
- MIC ([6]; G-block (OligoCF-5/20) 6%): > 16 µg/mL
- MIC ([6]; G-block (OligoCF-5/20) 10%): > 16 µg/mL
- MIC ([7]; OligoCF-5/20 0G): 32 µg/mL (≈ 58.5 µM)
- MIC ([7]; OligoCF-5/20 +2% G): 16 µg/mL (≈ 29.3 µM)
- MIC ([7]; OligoCF-5/20 +6% G): 8 µg/mL (≈ 14.6 µM)
- MIC ([7]; OligoCF-5/20 +10% G): 4 µg/mL (≈ 7.32 µM)
- MIC ([8]; Table 9, G-block (OligoCF-5/20) 0%): 16 µg/mL (≈ 29.3 µM)
- MIC ([8]; Table 9, G-block (OligoCF-5/20) 2%): 8 µg/mL (≈ 14.6 µM)
- MIC ([8]; Table 9, G-block (OligoCF-5/20) 6%): 8 µg/mL (≈ 14.6 µM)
- MIC ([8]; Table 9, G-block (OligoCF-5/20) 10%): 8 µg/mL (≈ 14.6 µM)
- MIC ([9]; G-block (OligoCF-5/20) 0%): > 16 µg/mL
- MIC ([9]; G-block (OligoCF-5/20) 2%): 16 µg/mL (≈ 29.3 µM)
- MIC ([9]; G-block (OligoCF-5/20) 6%): 8 µg/mL (≈ 14.6 µM)
- MIC ([9]; G-block (OligoCF-5/20) 10%): 2 µg/mL (≈ 3.66 µM)
- MIC (Streptococcus oralis; G-block (OligoCF-5/20) 0%): 8 µg/mL (≈ 14.6 µM)
- MIC (Streptococcus oralis; G-block (OligoCF-5/20) 2%): 4 µg/mL (≈ 7.32 µM)
- MIC (Streptococcus oralis; G-block (OligoCF-5/20) 6%): 0.0312 µg/mL (≈ 0.0572 µM)
- MIC (Streptococcus oralis; G-block (OligoCF-5/20) 10%): 1 µg/mL (≈ 1.83 µM)
- MIC ([10]; Acinetobacter baumannii, OligoCF-5/20 0G, read-out: MIC): > 512 µg/mL
- MIC ([10]; OligoCF-5/20 +2% G): 512^† μg/ml
- MIC ([10]; OligoCF-5/20 +6% G): 512^† μg/ml
- MIC ([10]; OligoCF-5/20 +10% G): 256^† μg/ml
- MIC ([11]; Klebsiella pneumoniae, OligoCF-5/20 0G, read-out: MIC): 64 µg/mL (≈ 117 µM)
- MIC ([11]; OligoCF-5/20 +2% G): 64 µg/mL (≈ 117 µM)
- MIC ([11]; OligoCF-5/20 +6% G): 16^† μg/ml
- MIC ([11]; OligoCF-5/20 +10% G): 16^† μg/ml
- MIC ([12]; OligoCF-5/20 0G): < 1 µg/mL
- MIC ([12]; OligoCF-5/20 +2% G): < 1 µg/mL
- MIC ([12]; OligoCF-5/20 +6% G): < 1 µg/mL
- MIC ([12]; OligoCF-5/20 +10% G): < 1 µg/mL
- MIC ([13]; OligoCF-5/20 0G): < 1 µg/mL
- MIC ([13]; OligoCF-5/20 +2% G): < 1 µg/mL
- MIC ([13]; OligoCF-5/20 +6% G): < 1 µg/mL
- MIC ([13]; OligoCF-5/20 +10% G): < 1 µg/mL

From patent US9801901B2, “Alginate oligomers for use in overcoming multidrug resistance in bacteria” (priority 2009, dated 2017)
